System: Phospho-Rb (Ser807/811) in MCF7 cells
Assay: Phospho-Rb expression inhibition in MCF7 cells quantified by in cell Western
Type: cell-based, human
Conditions: Homo sapiens, MCF7, 24 h, 24 h incubation, in cell Western, read-out: MCF7, pRb (Ser807/811), IC50
In short: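 MCF7 cells were seeded at 20,000/well, grown overnight, then treated 24 h at 37 °C with compound dilutions (0.1% DMSO from 1000× stocks). Fixed cells were co-stained for phospho-Rb Ser807/811 and total Rb. Near-infrared dual-channel in-cell Western imaging was the read-out.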

Row | IC50 | Compound
1 | 40.4 nM | CC(C)n1c(C(C)(C)O)nc2c(F)cc(-c3nc(N[C@@H]4C[C@H]5CO[C@H](O5)[C@H]4O)ncc3Cl)cc21 [Compound 1, (1S,3R,4S,5R)-3-((5-chloro-4-(4-fluoro-2-(2-hydroxypropan-2-yl)-1-isopropyl-1H-benzo[d]imidazol-6-yl)pyrimidin-2-yl)amino)-6,8-dioxabicyclo[3.2.1]octan-4-ol]

Same assay, conditions: Homo sapiens, MCF7, 24 h, 24 hours, in cell Western, read-out: MCF7 pRb IC50

Row | IC50 | Compound
2 | 40 to 150 nM | CC(C)n1c(C(C)(C)O)nc2c(F)cc(-c3nc(N[C@@H]4C[C@H]5CO[C@H](O5)[C@H]4O)ncc3Cl)cc21 [Compound 1, (1S,3R,4S,5R)-3-((5-chloro-4-(4-fluoro-2-(2-hydroxypropan-2-yl)-1-isopropyl-1H-benzo[d]imidazol-6-yl)pyrimidin-2-yl)amino)-6,8-dioxabicyclo[3.2.1]octan-4-ol]
3 | 40 to 150 nM | Cc1nc2c(F)cc(-c3nc(N[C@@H]4C[C@H]5CO[C@H](O5)[C@H]4O)ncc3Cl)cc2n1C(C)C [Compound 25, (1S,3R,4S,5R)-3-((5-chloro-4-(4-fluoro-1-isopropyl-2-methyl-1H-benzo[d]imidazol-6-yl)pyrimidin-2-yl)amino)-6,8-dioxabicyclo[3.2.1]octan-4-ol]
4 | 40 to 150 nM | Cc1c(C)n(C(C)C)c2cc(-c3nc(N[C@@H]4C[C@H]5CO[C@H](O5)[C@H]4O)ncc3Cl)ccc2c1=O [Compound 191, 7-(5-chloro-2-(((1S,3R,4S,5R)-4-hydroxy-6,8-dioxabicyclo[3.2.1]octan-3-yl)amino)pyrimidin-4-yl)-1-isopropyl-2,3-dimethylquinolin-4(1H)-one]
5 | 40 to 150 nM | CNCc1c(C)c(=O)c2ccc(-c3nc(N[C@@H]4C[C@H]5CO[C@H](O5)[C@H]4O)ncc3F)cc2n1C(C)C [Compound 194, 7-(5-fluoro-2-(((1S,3R,4S,5R)-4-hydroxy-6,8-dioxabicyclo[3.2.1]octan-3-yl)amino)pyrimidin-4-yl)-1-isopropyl-3-methyl-2-((methylamino)methyl)quinolin-4(1H)-one]
6 | 40 to 150 nM | Cc1c(CN(C)C)n(C(C)C)c2cc(-c3nc(N[C@@H]4C[C@H]5CO[C@H](O5)[C@H]4O)ncc3F)ccc2c1=O [Compound 195, 2-((dimethylamino)methyl)-7-(5-fluoro-2-(((1S,3R,4S,5R)-4-hydroxy-6,8-dioxabicyclo [3.2.1]octan-3-yl)amino)pyrimidin-4-yl)-1-isopropyl-3-methylquinolin-4(1H)-one]
7 | 40 to 150 nM | Cc1c(CN2CCC2)n(C(C)C)c2cc(-c3nc(N[C@@H]4C[C@H]5CO[C@H](O5)[C@H]4O)ncc3F)ccc2c1=O [Compound 196, 2-(azetidin-1-ylmethyl)-7-(5-fluoro-2-(((1S,3R,4S,5R)-4-hydroxy-6,8-dioxabicyclo[3.2.1]octan-3-yl)amino)pyrimidin-4-yl)-1-isopropyl-3-methylquinolin-4(1H)-one]
8 | 40 to 150 nM | Cc1c(CN2CC(F)C2)n(C(C)C)c2cc(-c3nc(N[C@@H]4C[C@H]5CO[C@H](O5)[C@H]4O)ncc3F)ccc2c1=O [Compound 197, 7-(5-fluoro-2-(((1S,3R,4S,5R)-4-hydroxy-6,8-dioxabicyclo[3.2.1]octan-3-yl)amino)pyrimidin-4-yl)-2-((3-fluoroazetidin-1-yl)methyl)-1-isopropyl-3-methylquinolin-4(1H)-one]
9 | ≤ 40 nM | Cc1c(CN2[C@@H](C)COC[C@@H]2C)n(C(C)C)c2cc(-c3nc(N[C@@H]4C[C@H]5CO[C@H](O5)[C@H]4O)ncc3F)ccc2c1=O [Compound 199, 2-(((3S,5S)-3,5-dimethylmorpholino)methyl)-7-(5-fluoro-2-(((1S,3R,4S,5R)-4-hydroxy-6,8-dioxabicyclo[3.2.1]octan-3-yl)amino)pyrimidin-4-yl)-1-isopropyl-3-methylquinolin-4(1H)-one]
10 | 40 to 150 nM | CC(C)n1c(CN2[C@@H](C)COC[C@@H]2C)c(F)c(=O)c2ccc(-c3nc(N[C@@H]4C[C@H]5CO[C@H](O5)[C@H]4O)ncc3Cl)cc21 [Compound 201, 7-(5-chloro-2-(((1S,3R,4S,5R)-4-hydroxy-6,8-dioxabicyclo[3.2.1]octan-3-yl)amino)pyrimidin-4-yl)-2-(((3S,5S)-3,5-dimethylmorpholino)methyl)-3-fluoro-1-isopropylquinolin-4(1H)-one]
11 | 150 to 1000 nM | CC(C)n1c(CN2CC[C@@H](F)C2)c(F)c(=O)c2ccc(-c3nc(N[C@@H]4C[C@H]5CO[C@H](O5)[C@H]4O)ncc3F)cc21 [Compound 202, 3-fluoro-7-(5-fluoro-2-(((1S,3R,4S,5R)-4-hydroxy-6,8-dioxabicyclo[3.2.1]octan-3-yl)amino)pyrimidin-4-yl)-2-(((R)-3-fluoropyrrolidin-1-yl)methyl)-1-isopropylquinolin-4(1H)-one]
12 | 40 to 150 nM | CC(C)n1c(CN2[C@@H](C)COC[C@@H]2C)c(C(F)F)c(=O)c2ccc(-c3nc(N[C@@H]4C[C@H]5CO[C@H](O5)[C@H]4O)ncc3Cl)cc21 [Compound 204, 7-(5-chloro-2-(((1S,3R,4S,5R)-4-hydroxy-6,8-dioxabicyclo[3.2.1]octan-3-yl)amino)pyrimidin-4-yl)-3-(difluoromethyl)-2-(((3S,5S)-3,5-dimethylmorpholino)methyl)-1-isopropylquinolin-4(1H)-one]
13 | 40 to 150 nM | CC(C)n1c(CN2[C@@H](C)COC[C@@H]2C)cc(=O)c2ccc(-c3nc(N[C@@H]4C[C@H]5CO[C@H](O5)[C@H]4O)ncc3Cl)cc21 [Compound 205, 7-(5-chloro-2-(((1S,3R,4S,5R)-4-hydroxy-6,8-dioxabicyclo[3.2.1]octan-3-yl)amino)pyrimidin-4-yl)-2-(((3S,5S)-3,5-dimethylmorpholino)methyl)-1-isopropylquinolin-4(1H)-one]
14 | ≤ 40 nM | Cc1c(CN2[C@@H](C)COC[C@@H]2C)n(C(C)C)c2cc(-c3nc(N[C@@H]4C[C@H]5CO[C@H](O5)[C@H]4O)ncc3Cl)ccc2c1=O [Compound 206, 7-(5-chloro-2-(((1S,3R,4S,5R)-4-hydroxy-6,8-dioxabicyclo[3.2.1]octan-3-yl)amino)pyrimidin-4-yl)-2-(((3S,5S)-3,5-dimethylmorpholino)methyl)-1-isopropyl-3-methylquinolin-4(1H)-one]
15 | ≤ 40 nM | CC(C)n1c([C@@H]2CC2(F)F)nc2c(F)cc(-c3nc(N[C@@H]4C[C@H]5CO[C@H](O5)[C@H]4O)ncc3Cl)cc21 [Compound 216, (1S,3R,4S,5R)-3-((5-chloro-4-(2-((S)-2,2-difluorocyclopropyl)-4-fluoro-1-isopropyl-1H-benzo[d]imidazol-6-yl)pyrimidin-2-yl)amino)-6,8-dioxabicyclo[3.2.1]octan-4-ol]
16 | ≤ 40 nM | Cc1c(-c2nc(N[C@@H]3C[C@H]4CO[C@H](O4)[C@H]3O)ncc2Cl)sc2c(C(C)C)cn(C)c(=O)c12 [Compound 223, 2-(5-chloro-2-(((1S,3R,4S,5R)-4-hydroxy-6,8-dioxabicyclo[3.2.1]octan-3-yl)amino)pyrimidin-4-yl)-7-isopropyl-3,5-dimethylthieno[3,2-c]pyridin-4(5H)-one]
17 | ≤ 40 nM | Cc1c(-c2nc(N[C@@H]3C[C@H]4CO[C@H](O4)[C@H]3O)ncc2C(F)F)sc2c(C(C)C)cn(C)c(=O)c12 [Compound 227, 2-(5-(difluoromethyl)-2-(((1S,3R,4S,5R)-4-hydroxy-6,8-dioxabicyclo[3.2.1]octan-3-yl)amino)pyrimidin-4-yl)-7-isopropyl-3,5-dimethylthieno[3,2-c]pyridin-4(5H)-one]
18 | ≤ 40 nM | CCn1cc(C(C)C)c2sc(-c3nc(N[C@@H]4C[C@H]5CO[C@H](O5)[C@H]4O)ncc3Cl)c(C)c2c1=O [Compound 230, 5-ethyl-2-(5-chloro-2-(((1S,3R,4S,5R)-4-hydroxy-6,8-dioxabicyclo[3.2.1]octan-3-yl)amino)pyrimidin-4-yl)-7-isopropyl-3-methylthieno[3,2-c]pyridin-4(5H)-one]
19 | ≤ 40 nM | CC(C)(O)c1cnc2c(F)cc(-c3nc(N[C@@H]4C[C@H]5CO[C@H](O5)[C@H]4O)ncc3Cl)cc2c1Cl [Compound 252, (1S,3R,4S,5R)-3-((5-chloro-4-(4-chloro-8-fluoro-3-(2-hydroxypropan-2-yl)quinolin-6-yl)pyrimidin-2-yl)amino)-6,8-dioxabicyclo[3.2.1]octan-4-ol]
20 | ≤ 40 nM | CC(C)(O)c1cnc2c(F)cc(-c3nc(N[C@@H]4C[C@H]5CO[C@H](O5)[C@H]4O)ncc3F)cc2c1Cl [Compound 255, (1S,3R,4S,5R)-3-((4-(4-chloro-8-fluoro-3-(2-hydroxypropan-2-yl)quinolin-6-yl)-5-fluoropyrimidin-2-yl)amino)-6,8-dioxabicyclo[3.2.1]octan-4-ol]
21 | ≤ 40 nM | Cc1c(C(C)(C)O)cnc2c(F)cc(-c3nc(N[C@@H]4C[C@H]5CO[C@H](O5)[C@H]4O)ncc3F)cc12 [Compound 256, (1S,3R,4S,5R)-3-((5-fluoro-4-(8-fluoro-3-(2-hydroxypropan-2-yl)-4-methylquinolin-6-yl)pyrimidin-2-yl)amino)-6,8-dioxabicyclo[3.2.1]octan-4-ol]
22 | ≤ 40 nM | Cc1c(C(C)(C)O)cnc2c(F)cc(-c3nc(N[C@@H]4C[C@H]5CO[C@H](O5)[C@H]4O)ncc3Cl)cc12 [Compound 257, (1S,3R,4S,5R)-3-((5-chloro-4-(8-fluoro-3-(2-hydroxypropan-2-yl)-4-methylquinolin-6-yl)pyrimidin-2-yl)amino)-6,8-dioxabicyclo[3.2.1]octan-4-ol]
23 | ≤ 40 nM | Cc1c(-c2nc(N[C@@H]3C[C@H]4CO[C@H](O4)[C@H]3O)ncc2Cl)sc2c(C(C)C)cnnc12 [Compound 259, (1S,3R,4S,5R)-3-((5-chloro-4-(4-isopropyl-7-methylthieno[3,2-c]pyridazin-6-yl)pyrimidin-2-yl)amino)-6,8-dioxabicyclo[3.2.1]octan-4-ol]
24 | 40 to 150 nM | COC(=O)N1CC[C@@H](c2nc3c(F)cc(-c4nc(N[C@@H]5C[C@H]6CO[C@H](O6)[C@H]5O)ncc4F)cc3n2C(C)C)C1 [Compound 265, methyl (R)-3-(4-fluoro-6-(5-fluoro-2-(((1S,3R,4S,5R)-4-hydroxy-6,8-dioxabicyclo[3.2.1]octan-3-yl)amino)pyrimidin-4-yl)-1-isopropyl-1H-benzo[d]imidazol-2-yl)pyrrolidine-1-carboxylate]

Same assay, conditions: versus PF-07220060

Row | Compound | Potency in p-Rb inhibition compared with the reference compound
25 | CC(C)n1c(C(C)(C)O)nc2c(F)cc(-c3nc(N[C@@H]4C[C@H]5CO[C@H](O5)[C@H]4O)ncc3Cl)cc21 [Compound 1, (1S,3R,4S,5R)-3-((5-chloro-4-(4-fluoro-2-(2-hydroxypropan-2-yl)-1-isopropyl-1H-benzo[d]imidazol-6-yl)pyrimidin-2-yl)amino)-6,8-dioxabicyclo[3.2.1]octan-4-ol] | higher potency

Reference: patent publication US20250084095A1, “Aminopyrimidine Derivatives as Cyclin-Dependent Kinase Inhibitors” (Accutar Biotechnology Inc., priority 2023, published 2025)
